The record followed here is US10723859B2, “Lignin valorization in ionic liquids and deep eutectic solvent via catalysis and biocatalysis” (University of Kentucky Research Foundation, priority 2017, dated 2020).

What all share (format): biochemical, Trametes versicolor
Test [1] relates to T. versicolor laccase. Kind of test: Biocompatibility screening of AILs with laccase (ABTS oxidation assay). The note with it: for inhibitory effect on laccase (comparison among the 3 ILs): varied concentration of laccase and ILs. The method, then: All solutions used were adjusted to pH 5.0 prior to beginning experiments. Appropriate concentrations of laccase and AILs were mixed and added to clear, flat bottom 96-well Costar Assay Plates (Corning Inc.; Kenneburk, Me.). ABTS was added for a final concentration of 2 mM. Sodium citrate buffer (1.0 M, pH 5.0) was added for a final well volume of 250 μL. ABTS oxidation was measured for 5 minutes at 40° C. Absorbance readings were taken every 30 seconds at a wavelength of 420 nm using a SpectraMax M2 plate reader from Molecular Devices (Sunnyvale, Calif., USA). Plates were shaken for 5 seconds prior to initial reading and 3 seconds before each reading to ensure homogeneous well solutions.

The subject of test [2] is T. versicolor laccase. Kind of test: Lignin model compound (GGE) depolymerization by laccase in AILs, HPLC. The conditions noted are these: 2% [C2C1Im][OAc] or 1% [Ch][Lys], 40° C., O2 30 psi, 2 hours. The procedure:
Appropriate concentrations of AIL, ABTS, laccase, and GGE were mixed. Sodium citrate buffer (1.0 M, pH 5.0) was added for a final reaction volume of 1 mL. Reactions were carried out in a batch reactor at 40° C. Pure O2 was flowed through the reactor for 1 minute. The release valve of the reactor was closed, pure O2 was flowed in at a pressure of 30 psi, and the reaction was allowed to proceed for an additional 2 hours. Product profiles were analyzed by HPLC using the method as described previously (Deng, Zhang et al. 2015). Water and acetonitrile (8:2 v/v) was used as a mobile phase. Mobile phase was flowed at 0.5 mL min^−1 for 30 minutes through an Ultimate 3000 HPLC system (Dionex Corporation, Sunnyvale, Calif., USA) equipped with ultraviolet (UV) detector. Separation was achieved through use of a Zorbax Eclipse XDB-C18 column (5 μm particle size, 150×4.6 mm i.d., Agilent Technologies, Santa Clara, Calif., USA) at 25° C. Elution profile of column was measured by UV absorbance at 280 nm.

Test [3] concerns T. versicolor laccase. Kind of test: AIL inhibition: Michaelis-Menten and Lineweaver-Burke curves of laccase. The conditions noted are these: from changes in Vmax and Km with AIL concentration; ABTS substrate, 0.30 μg laccase. The method, then: Michaelis-Menten curves were generated by mixing appropriate concentrations of AILs and ABTS with 0.30 μg laccase in 96-well plates. Sodium citrate buffer (1.0 M, pH 5.0) was added for a final well volume of 250 μL. ABTS oxidation was measured using the same method as the initial screening. Laccase activity (V) was measured as moles of ABTS oxidized per minute per gram of laccase (mol ABTS·min^−1·g^−1 lac.) and Km was measured in μmol ABTS. Activity was fit to the Michaelis-Menten curve, shown in equation 1. [formula] These curves were linearized using the Lineweaver-Burke method, resulting in equation 2. [formula] Equation 2 was used to solve for Km and Vmax of laccase in known concentrations of AILs.

“Also recorded” adds a separate entry of the source. Where only a bound is given, the exact number is not on record here.

In the case of `C[N+](C)(C)CCO.NCCCC[C@H](N)C(=O)[O-]` [[Ch][Lys], cholinium lysinate], in the test on T. versicolor laccase [1] (2% AIL, ABTS oxidation, pH 5.0, 40° C.), the “loss of laccase activity” value is above 50%. Further, the “inhibitory effect on laccase (comparison among the 3 ILs)” value (shortened to “inhibitory effect on laccase”) with T. versicolor laccase [1] (ABTS assay) is given as “more inhibitory”. Besides, the “degradation of GGE by laccase in AIL” value with T. versicolor laccase [2] (with mediator ABTS) is “able to break down GGE”; with T. versicolor laccase [2] (without ABTS, 10% [DEA][HSO4]) it was “not capable of breaking down GGE”. Moreover, in the test on T. versicolor laccase [3], the “type of inhibition of laccase” value was “mixed inhibition”.
`CCNCC.O=S(=O)(O)O` [[DEA][HSO4], diethyl ammonium hydrogen sulfate]: the “loss of laccase activity” value in the test on T. versicolor laccase [1] (10% IL, ABTS assay) is given as “losing little of its activity; also recorded: negligible to modest loss of laccase activity”. Besides, the “inhibitory effect on laccase” value in the test with T. versicolor laccase [1] (ABTS assay) is given as “most biocompatible; also recorded: did not impede the ability of laccase to oxidize ABTS”. Further, the “degradation of GGE by laccase in AIL” value in the test with T. versicolor laccase [2] (without ABTS, 10% [DEA][HSO4]) is reported as “capable of degrading GGE”. Further, the “type of inhibition of laccase” value with T. versicolor laccase [3] is on record as “noncompetitive inhibition”.
Take `CC(=O)[O-].CCn1cc[n+](C)c1` [[C2C1Im][OAc], 1-ethyl-3-methylimidazolium acetate]: the “loss of laccase activity” value in the test with T. versicolor laccase [1] (2% IL, ABTS assay) is listed as “significant loss of laccase activity”. Moreover, the “inhibitory effect on laccase” value in the test on T. versicolor laccase [1] (ABTS assay, acetate) is given as “more inhibitory to laccase”. The “degradation of GGE by laccase in AIL” value is “able to break down GGE” with T. versicolor laccase [2] (with mediator ABTS) and “not capable of breaking down GGE” with T. versicolor laccase [2] (without ABTS, 10% [DEA][HSO4]). For the same compound, the “type of inhibition of laccase” value in the test with T. versicolor laccase [3] was “mixed inhibition”.
